“And” between values parts separate entries of the source, which are not always exact repeats. Equal entries are not always repeated. Where two headings read alike, the source gives them in different places.
Legend:
JAK1/JAK2 = type: cell-based, human
[1] = system: PC3 human prostate cancer cells; type: cell-based
[2] = system: PC3 human prostate cancer cells; type: cell-based; remark: listed apart in the source
complement C3 [3] = target: T1, complement C3 (Homo sapiens, UniProt P01024); type: cell-based; details: 72 h
complement C3 [4] = target: T1, complement C3; type: cell-based; details: 48 h

T1 sequence (P01024 672-1663): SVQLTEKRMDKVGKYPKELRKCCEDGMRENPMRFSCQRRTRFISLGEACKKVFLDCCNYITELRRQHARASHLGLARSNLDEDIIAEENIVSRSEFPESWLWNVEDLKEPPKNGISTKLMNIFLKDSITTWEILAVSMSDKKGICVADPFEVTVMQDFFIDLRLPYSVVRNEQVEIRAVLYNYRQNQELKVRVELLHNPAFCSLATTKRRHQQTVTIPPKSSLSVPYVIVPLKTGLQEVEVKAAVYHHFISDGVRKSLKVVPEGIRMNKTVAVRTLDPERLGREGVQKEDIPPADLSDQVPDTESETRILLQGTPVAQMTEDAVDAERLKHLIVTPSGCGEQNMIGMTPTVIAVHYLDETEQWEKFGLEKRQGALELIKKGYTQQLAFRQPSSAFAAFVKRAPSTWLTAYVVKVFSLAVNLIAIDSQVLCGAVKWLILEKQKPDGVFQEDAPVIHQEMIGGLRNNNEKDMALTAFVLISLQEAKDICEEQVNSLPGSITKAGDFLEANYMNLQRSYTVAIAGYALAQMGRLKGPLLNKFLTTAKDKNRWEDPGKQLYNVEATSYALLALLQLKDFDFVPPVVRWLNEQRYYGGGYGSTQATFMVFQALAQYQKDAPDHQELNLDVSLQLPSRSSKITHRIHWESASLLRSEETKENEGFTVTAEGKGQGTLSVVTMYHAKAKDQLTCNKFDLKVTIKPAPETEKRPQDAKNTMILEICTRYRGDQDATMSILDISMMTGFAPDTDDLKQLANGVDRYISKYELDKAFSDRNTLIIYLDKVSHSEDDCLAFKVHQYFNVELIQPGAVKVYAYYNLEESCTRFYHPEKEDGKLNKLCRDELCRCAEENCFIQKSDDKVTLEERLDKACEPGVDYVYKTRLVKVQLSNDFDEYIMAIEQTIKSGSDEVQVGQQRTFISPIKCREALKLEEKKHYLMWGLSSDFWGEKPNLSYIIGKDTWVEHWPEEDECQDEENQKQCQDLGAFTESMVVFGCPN
T1 sequence (P01024 23-667): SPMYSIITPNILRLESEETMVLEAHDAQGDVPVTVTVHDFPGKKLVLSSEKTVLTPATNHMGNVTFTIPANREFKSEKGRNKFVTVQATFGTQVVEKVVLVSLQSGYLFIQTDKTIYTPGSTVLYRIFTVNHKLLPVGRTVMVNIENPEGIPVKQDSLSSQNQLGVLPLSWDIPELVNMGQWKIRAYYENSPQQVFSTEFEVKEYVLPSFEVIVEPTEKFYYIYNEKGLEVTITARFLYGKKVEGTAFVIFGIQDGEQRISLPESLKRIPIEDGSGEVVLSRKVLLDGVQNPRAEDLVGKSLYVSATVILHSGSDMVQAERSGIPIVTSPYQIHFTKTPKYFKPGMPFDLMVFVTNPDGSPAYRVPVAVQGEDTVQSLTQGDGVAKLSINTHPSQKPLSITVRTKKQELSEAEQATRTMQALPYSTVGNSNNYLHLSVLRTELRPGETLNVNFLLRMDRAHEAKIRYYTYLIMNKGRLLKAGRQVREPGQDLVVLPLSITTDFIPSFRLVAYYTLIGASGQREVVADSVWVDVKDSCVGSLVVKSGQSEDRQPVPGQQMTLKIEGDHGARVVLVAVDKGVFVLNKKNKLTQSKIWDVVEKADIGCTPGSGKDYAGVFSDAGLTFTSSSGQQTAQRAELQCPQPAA

| SMILES | Average Fluorescence Intensity Density (JAK1/JAK2) | Average Fluorescence Intensity Density [1] | increase of fluorescence intensity (partial reversal of complement-mediated suppression of virus spreading) [2] [%] | Average Fluorescence Intensity Density ([2]; 48 h) | % Increase in Fluorescence (complement C3 [3]) [%] | Average Fluorescence Intensity Density (complement C3 [3]) | increase of fluorescent signal compared to control cells (complement C3 [3]) [%] | Average Fluorescence Intensity Density (complement C3 [4]) | increase of fluorescence intensity vs serum only control (complement C3 [4]) [%] |
| --- | --- | --- | --- | --- | --- | --- | --- | --- | --- |
| N#CC[C@H](C1CCCC1)n1cc(-c2ncnc3[nH]ccc23)cn1 [Ruxolitinib] | 0.074 and 0.0755 and 0.0735 | 3.8 and 6.0 |  |  |  |  |  |  |  |
| CC[C@H](C)[C@H](N)C(=O)N[C@H]1CSSC[C@@H](C(=O)N[C@H](C(N)=O)[C@@H](C)O)NC(=O)[C@H](CCCN=C(N)N)NC(=O)[C@H](Cc2cnc[nH]2)NC(=O)[C@H](Cc2cnc[nH]2)NC(=O)CNC(=O)[C@H](Cc2c[nH]c3ccccc23)NC(=O)[C@H](CC(=O)O)NC(=O)[C@H](CCC(N)=O)NC(=O)[C@H](C(C)C)NC(=O)[C@H](C(C)C)NC1=O [compstatin] |  |  | 28.5 | 36.4 | 50 | 0.09 | 50 | 0.0945 and 0.0670 and 0.0920 | 27.7 |
